Drawing on ChEMBL document CHEMBL4371090, “Chemical Synthesis Study Establishes the Correct Structure of the Potent Anti-Inflammatory Agent Myrsinoic Acid F” (J Nat Prod, 2019), this text covers inhibition for three compounds.

Active and inactive are the calls of the source. No cut-off for these calls is given here.

The assay concerns Mus musculus. Briefly: Anti-inflammatory activity in TPA-induced mouse ear edema model assessed as inhibition of ear swelling at 0.6 to 1.4 umol applied topically on ear pretreated for 0.5 hrs followed by TPA application and measured after 7 hrs. It counts as functional, organism-based.

As for `COc1ccc2c(c1)c(CC(=O)O)c(C)n2C(=O)c1ccc(Cl)cc1`, the inhibition result is “Active”.

For the compound `CC(C)=CC/C=C(\C)C(O)Cc1cc(Br)cc(CC=C(C)C)c1O` (stereo not drawn), the inhibition entry is “Active”. Consider `CC(C)=CC/C=C(\C)C(O)Cc1cc(C(=O)O)cc(CC=C(C)C)c1O` (stereo not drawn), for which the inhibition result was “Active”.
